Data as given in patent US8048927B2 (Besins Healthcare Luxembourg, priority 2004, dated 2011).

Assays:
[1] = tolerance of 4-hydroxy tamoxifen gel in healthy premenopausal women (Example 3)
Experimental: Each participant applied the gel daily for the duration of two menstrual cycles.
On the first day of the following menstruation, treatment, which consisted of daily application of the gel over two menstrual cycles, began. Blood samples were collected 24 hours following the morning application of gel on days 7, 20 and 25 of the first and second cycles. On the last day of administration, day 25 of the second menstrual cycle, serial blood samples were collected prior to application and at 0.5, 1, 1.5, 2, 3, 4, 6, 12, 18, 24, 36, 48, and 72 hours after application of the gel.

[2] = human, in vivo
Experimental: The patients received [^3H]-labeled drug applied directly on the affected breasts at specified intervals ranging from 12 hours to 7 days before surgery to excise diseased tissue. Breast tissue from three regions: the tumor, tissue immediately surrounding the tumor, and normal tissue, was excised and immediately frozen in liquid nitrogen. Additionally, plasma and urine samples were obtained at scheduled intervals and frozen until analysis.

[3] = target: T1, estrone sulphatase (Homo sapiens, UniProt P08842); settings: mammary cancer cell lines; cited from earlier work
T1 construct: estrone sulphatase activity in mammary cancer cell lines; endogenous in cells
T1 sequence (P08842 22-583): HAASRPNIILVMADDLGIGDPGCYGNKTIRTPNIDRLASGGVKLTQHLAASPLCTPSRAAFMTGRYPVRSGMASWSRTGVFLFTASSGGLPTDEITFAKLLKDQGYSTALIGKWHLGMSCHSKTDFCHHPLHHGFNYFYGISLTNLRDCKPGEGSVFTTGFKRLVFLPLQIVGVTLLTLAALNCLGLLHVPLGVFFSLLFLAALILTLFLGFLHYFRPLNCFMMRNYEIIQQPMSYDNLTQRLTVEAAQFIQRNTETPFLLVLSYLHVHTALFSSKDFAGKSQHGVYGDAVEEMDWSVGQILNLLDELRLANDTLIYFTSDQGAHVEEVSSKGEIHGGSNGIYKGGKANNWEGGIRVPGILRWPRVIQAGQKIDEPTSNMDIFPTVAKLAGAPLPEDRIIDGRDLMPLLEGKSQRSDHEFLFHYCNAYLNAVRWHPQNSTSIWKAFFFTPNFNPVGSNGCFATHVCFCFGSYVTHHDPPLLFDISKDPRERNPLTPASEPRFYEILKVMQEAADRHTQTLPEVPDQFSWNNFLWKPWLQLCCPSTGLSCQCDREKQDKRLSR

[4] = tested on: estrogen receptors; settings: in vitro; cited from earlier work
[5] = tested on: rat liver; settings: in vivo; cited from earlier work
[6] = in vivo; cited from earlier work

SMILES: CCC(=C(c1ccc(O)cc1)c1ccc(OCCN(C)C)cc1)c1ccccc1 [4-hydroxy tamoxifen, 1-[4-(2-N-dimethylaminoethoxy)phenyl]-1-(4-hydroxyphenyl)-2-phenylbut-1-ene]
- patients who developed an allergic reaction to the gel ([1]; 36 patients): One
- patients who reported facial acne ([1]; 36 patients, 5 had a past history of acne): 10
- biological tolerance ([1]; all 36 patients, daily gel over two menstrual cycles): excellent
- effect on FSH, LH, estradiol, or progesterone hormone levels ([1]; during the menstrual cycles): did not affect
- echographic examination of the ovaries ([1]; end of treatment, all patients): normal in all patients
- laboratory or clinical evidence of systemic effects ([1]; topical application): no detectable laboratory or clinical evidence of systemic effects
- metabolism in cytosolic and nuclear fractions of breast tissue [2]: remained unmetabolized except for limited isomerization from the Z to the E form
- retention in the breast [2]: approximately 4 days
- subcellular distribution in breast tissue [2]: concentrated predominantly in the cytosolic and nuclear fractions of breast tissue
- inhibitory effect on estrone sulphatase activity [3]: significant inhibitory effect
- potency versus tamoxifen, as measured by binding affinity to estrogen receptors [4]: more potency than tamoxifen
- rat liver carcinogenicity [5]: not
- breast tissue concentration by site of application [6]: concentrated at higher amounts in breast tissue when the gel was applied directly to the breasts
